We go through three compounds from EP4806912A1, “DUAL AGONIST COMPOUND” (Chengdu Aoda Biotechnology Co., Ltd, priority 2023, dated 2025).

In test [1] the target is T1, GLP-1R (Homo sapiens, UniProt P43220).
T1 construct: expressed in transfected cells; host or cells: CHO-K1
In words: GLP-1 activity test (cAMP, chemiluminescence, CHO-K1 cell line stably expressing GLP-1R). It counts as cell-based. To be noted: relative luminescence units, read-out: GLP-1 activity [EC50(pmol)]. On the procedure: (§1) Upon stimulation by a specific agonist, GLP-1R activates the intracellular adenylate cyclase signaling pathway, resulting in an increase in cAMP levels and ultimately leading to insulin production and secretion. A cell line stably transfected with GLP-1R was stimulated with test compounds, thereby rapidly increasing intracellular cAMP levels. The relative luminescence units (RLU) of cells stimulated at various concentrations were measured by a chemiluminescence method, and the EC50 value of the agonist was calculated accordingly. This activity test method is currently a commonly used method for evaluating GLP-1 receptor agonist activity both domestically and internationally.
A CHO-K1 cell line stably expressing GLP-1R was used. The stable cells were stimulated with agonists at different concentrations, and the relative luminescence units after stimulation at each concentration were measured to calculate the EC50 value of the agonist.

In test [2] the target is T2, GCG-R (Homo sapiens, UniProt P47871).
T2 construct: expressed in transfected cells; host or cells: CHO-K1
T2 sequence (P47871 26-477, species assumed): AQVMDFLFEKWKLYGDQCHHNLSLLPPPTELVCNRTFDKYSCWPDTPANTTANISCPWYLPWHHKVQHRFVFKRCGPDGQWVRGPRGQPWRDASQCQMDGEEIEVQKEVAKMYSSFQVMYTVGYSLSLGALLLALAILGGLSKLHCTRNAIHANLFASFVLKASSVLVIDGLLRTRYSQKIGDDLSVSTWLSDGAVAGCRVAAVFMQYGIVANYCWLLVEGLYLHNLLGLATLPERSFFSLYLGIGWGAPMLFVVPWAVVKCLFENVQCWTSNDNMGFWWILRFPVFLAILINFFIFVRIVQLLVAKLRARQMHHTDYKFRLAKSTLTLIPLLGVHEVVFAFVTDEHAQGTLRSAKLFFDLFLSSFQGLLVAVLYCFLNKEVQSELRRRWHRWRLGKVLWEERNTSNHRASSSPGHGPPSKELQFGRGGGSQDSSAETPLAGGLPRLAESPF
In words: GCG activity test (cAMP, chemiluminescence, CHO-K1 cell line stably expressing GCG-R). In kind it is cell-based. To be noted: relative luminescence units, read-out: GCG activity [EC50(nmol)]. On the procedure:
as §1, with “agonist, GCG-R” for “agonist, GLP-1R”, “with GCG-R” for “with GLP-1R”, “activity assay” for “activity test”, “evaluating GCG” for “evaluating GLP-1”
A CHO-K1 cell line stably expressing GCG-R was used. The stable cells were stimulated with agonists at different concentrations, and the relative luminescence units after stimulation at each concentration were measured to calculate the EC50 value of the agonist.

As a reminder, the EC50 is the concentration at which the effect is half-maximal.

T1 sequence (P43220 24-463, species assumed): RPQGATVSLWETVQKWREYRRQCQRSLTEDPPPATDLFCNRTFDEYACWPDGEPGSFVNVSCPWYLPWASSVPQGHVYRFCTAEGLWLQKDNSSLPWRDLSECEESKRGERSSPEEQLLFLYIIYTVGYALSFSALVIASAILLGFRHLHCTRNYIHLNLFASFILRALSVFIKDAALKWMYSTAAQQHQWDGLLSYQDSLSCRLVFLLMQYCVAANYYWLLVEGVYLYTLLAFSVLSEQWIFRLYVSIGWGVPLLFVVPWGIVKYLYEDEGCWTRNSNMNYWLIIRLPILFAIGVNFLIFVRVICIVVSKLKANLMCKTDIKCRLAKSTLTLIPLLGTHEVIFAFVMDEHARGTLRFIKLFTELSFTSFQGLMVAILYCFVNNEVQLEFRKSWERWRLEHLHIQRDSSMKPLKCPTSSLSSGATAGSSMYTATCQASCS

As to `CC(C)C[C@H](NC(=O)[C@H](CC(C)C)NC(=O)[C@H](Cc1c[nH]c2ccccc12)NC(=O)[C@H](CCC(=O)O)NC(=O)[C@@H](NC(=O)[C@H](Cc1ccccc1)NC(=O)[C@H](CCC(=O)O)NC(=O)[C@H](CCCCNC(=O)COCCOCCOCCOCCOCCNC(=O)CCCCC[C@H](NC(=O)CCCCCCCCCCCCCCCCCCC(=O)O)C(=O)O)NC(=O)[C@H](C)NC(=O)[C@H](CCCCN)NC(=O)[C@H](CCCCN)NC(=O)[C@H](CCC(=O)O)NC(=O)[C@H](CC(=O)O)NC(=O)[C@H](CC(C)C)NC(=O)[C@H](Cc1ccc(O)cc1)NC(=O)[C@H](CCCCN)NC(=O)[C@H](CO)NC(=O)[C@H](Cc1ccc(O)cc1)NC(=O)[C@H](CC(=O)O)NC(=O)[C@H](CO)NC(=O)[C@@H](NC(=O)C(C)(Cc1ccccc1)NC(=O)[C@@H](NC(=O)CNC(=O)[C@H](CCC(N)=O)NC(=O)C(C)(C)NC(=O)[C@@H](N)Cc1c[nH]cn1)[C@@H](C)O)[C@@H](C)O)C(C)C)C(=O)N[C@@H](CCC(=O)O)C(=O)NCCCCC(=O)N1CCC[C@H]1C(=O)N[C@@H](CO)C(=O)N[C@@H](CO)C(=O)NCC(=O)N[C@@H](C)C(=O)N1CCC[C@H]1C(=O)N1CCC[C@H]1C(=O)N1CCC[C@H]1C(=O)N[C@@H](CO)C(N)=O` (stereo partly drawn) [Compound 8], the EC50 was found to be 0.105 nM in test [1] and 2.6 nM in test [2].
As for `CC(C)C[C@H](NC(=O)[C@H](CC(C)C)NC(=O)[C@H](Cc1c[nH]c2ccccc12)NC(=O)[C@H](CCC(=O)O)NC(=O)[C@@H](NC(=O)[C@H](Cc1ccccc1)NC(=O)[C@H](CCC(=O)O)NC(=O)[C@H](CCCCNC(=O)COCCOCCNC(=O)COCCOCCNC(=O)CC[C@H](NC(=O)CCCCCCCCCCCCCCCCCCC(=O)O)C(=O)O)NC(=O)[C@H](C)NC(=O)[C@H](CCCCN)NC(=O)[C@H](CCCCN)NC(=O)[C@H](CCC(=O)O)NC(=O)[C@H](CC(=O)O)NC(=O)[C@H](CC(C)C)NC(=O)[C@H](Cc1ccc(O)cc1)NC(=O)[C@H](CCCCN)NC(=O)[C@H](CO)NC(=O)[C@H](Cc1ccc(O)cc1)NC(=O)[C@H](CC(=O)O)NC(=O)[C@H](CO)NC(=O)[C@@H](NC(=O)C(C)(Cc1ccccc1)NC(=O)[C@@H](NC(=O)CNC(=O)[C@H](CCC(N)=O)NC(=O)C(C)(C)NC(=O)[C@@H](N)Cc1c[nH]cn1)[C@@H](C)O)[C@@H](C)O)C(C)C)C(=O)N[C@@H](CCC(=O)O)C(=O)NCCCCC(=O)N1CCC[C@H]1C(=O)N[C@@H](CO)C(=O)N[C@@H](CO)C(=O)NCC(=O)N[C@@H](C)C(=O)N1CCC[C@H]1C(=O)N1CCC[C@H]1C(=O)N1CCC[C@H]1C(=O)N[C@@H](CO)C(N)=O` (stereo partly drawn) [Compound 14], the EC50 was 0.088 nM in test [1] and 2.5 nM in test [2].
Consider `CC(C)C[C@H](NC(=O)[C@H](CC(C)C)NC(=O)[C@H](Cc1c[nH]c2ccccc12)NC(=O)[C@H](CCC(=O)O)NC(=O)[C@@H](NC(=O)[C@H](Cc1ccccc1)NC(=O)[C@H](CCC(=O)O)NC(=O)[C@H](CCCCNC(=O)COCCOCCOCCOCCOCCNC(=O)CCCCC[C@H](NC(=O)CCCCCCCCCCCCCCCCCCC(=O)O)C(=O)O)NC(=O)[C@H](C)NC(=O)[C@H](CCCCN)NC(=O)[C@H](CCCCN)NC(=O)[C@H](CCC(=O)O)NC(=O)[C@H](CC(=O)O)NC(=O)[C@H](CC(C)C)NC(=O)[C@H](Cc1ccc(O)cc1)NC(=O)[C@H](CCCCN)NC(=O)[C@H](CO)NC(=O)[C@H](Cc1ccc(O)cc1)NC(=O)[C@H](CC(=O)O)NC(=O)[C@H](CO)NC(=O)[C@@H](NC(=O)C(C)(Cc1ccccc1F)NC(=O)[C@@H](NC(=O)CNC(=O)[C@H](CCC(N)=O)NC(=O)C(C)(C)NC(=O)[C@@H](N)Cc1c[nH]cn1)[C@@H](C)O)[C@@H](C)O)C(C)C)C(=O)N[C@@H](CCC(=O)O)C(=O)NCCCCC(=O)N1CCC[C@H]1C(=O)N[C@@H](CO)C(=O)N[C@@H](CO)C(=O)NCC(=O)N[C@@H](C)C(=O)N1CCC[C@H]1C(=O)N1CCC[C@H]1C(=O)N1CCC[C@H]1C(=O)N[C@@H](CO)C(N)=O` (stereo partly drawn) [Compound 12], for which the EC50 in test [1] is 0.0954 nM; in test [2], 1.8 nM.
